Measurements: US20170362609A1, “[…] NANOPARTICLES FOR CODELIVERY OF WATER-INSOLUBLE SMALL MOLECULES AND RNAi” (Massachusetts Institute of Technology, priority 2016, published 2017)

How the values were obtained:
[1] = tested on: 5′-GMP; test: 5′-GMP binding with platinum species by 1HNMR
Description: The binding kinetics of 5′-GMP to each platinum species were determined by measuring the relative amounts of free and Pt-bound 5′-GMP at each time point, integrating the ratio of the ^1HNMR peaks at 8.5 ppm to 8.09 ppm.

[2] = tested on: BCL-2 siRNA; test: siRNA binding with platinum species by MALDI-TOF-MS; conditions: 10-fold excess of platinum
Description: The reaction mixture was placed in a 37° C. incubator and 10 μL of sample were removed at various time points to obtain MALDI-TOF-MS spectra (positive model).

[3] = tested on: BCL-2 siRNA; test: Double-stranded siRNA binding with platinum species by AAS; conditions: by 3 h of incubation
Description: A double-stranded RNA (sense: […]-ATT; antisense: […]-[…]) was mixed with OxaPt(II) at a molar ratio of 1:10 in RNAase free water (RNA final concentration: 5 μM; Pt final concentration at 50 μM; total volume of 100 μL). […] The RNA was then isolated using a centrifugation separation device (molecular cut-off 3000 Da, spun at 10,000 rpm; Nanosep®3k, Pall Corporation, USA). Five wash cycles with RNAase free water (5×100 μL) then ensued. An aliquot of 2 μL from each sample was obtained for optical density (OD) measurements in order to quantify the concentration of RNA in the original sample, using a NanoDrop reader. The remainder of each sample was diluted in 3% HNO3 for Pt content measurement via AAS. The experiments were performed in triplicate and data are presented such that the concentration of Pt-RNA adducts at each time point are expressed as “μmol Pt/μmol RNA”. Analogous methods were employed to obtain similar values for the numbers of Pt-RNA adducts formed by the reaction of siRNA with OxaPt(IV), CisPt(II) or CisPt(IV) at similar time points.
MALDI/TOF MS was used to ascertain the kinetics of platinum-RNA adduct formation using BCL-2 siRNA that was incubated with a 10-fold excess of various platinum(II) or platinum(IV) species. […]

[4] = tested on: MCF-7 cells; test: Intracellular platinum uptake; format: cell-based
Description: FIG. 19A is a bar graph showing platinum uptake (μg Pt/cell) for various compositions. […] Experiments were performed in triplicate. […] IC50 values were derived from three independent experiments each with four technical replicates per condition.
MCF-7 cells were seeded in 12-well plates at a density of 10^5 cells per well and incubated overnight in 1 mL of DMEM containing 10% FBS. […]

[5] = tested on: MCF-7 cells; test: Pt-DNA adducts in cells; format: cell-based; conditions: 24 h after treatment
Description: FIG. 19B is a bar graph showing the total number of Pt-DNA adducts (pg Pt/μg DNA) as assessed after 24 h of incubation with each treatment group, as defined in the description of FIG. 19A. DNA was isolated after cellular lysis and the content of DNA-bound Pt was determined by ICP-MS. Experiments were performed in triplicate. […] IC50 values were derived from three independent experiments each with four technical replicates per condition. […] In all cases, significance is defined as *p<0.05, **p<0.01, and ***p<0.001.
Atomic absorption spectroscopy (generation 8.0, Perkin Elmer) was used to study the kinetics of siRNA platination and to determine the platinum content in all micellar formulations. Inductively coupled plasma mass spectrometry (ICP-MS, Xseries II, Thermo scientific, USA) was used for quantitative determination of trace levels of platinum in cancer cells and to quantify Pt-DNA adduct formation. Sizes and distributions of micelles were determined by dynamic light scattering (DLS) with a vertically polarized He—Ne laser (DAWN EOS, Wyatt Technology, USA). The size and morphologies of the micelles very visualized using a JEOL JEM-1011 electron microscope. Particle size and zeta potential measurements were conducted on a Malvern Zetasizer Nano ZS90. Micelles were prepared by directly dissolving various modified triblock copolymers in water at 0.5 mg/mL.

[6] = tested on: MCF-7 cells; test: MTT cytotoxicity; format: cell-based; conditions: platinum concentration, siRNA 100 nM
Description: In vitro Cytotoxicity Measurements. MCF-7 cells were seeded in 96-well plates at a density of 1×10^4 cells/well. 100 μL of DMEM supplemented with 10% FBS were added to each well and the cells were incubated at 37° C. for 24 h. […] All experiments were conducted in triplicate.

[7] = tested on: OVCAR4 cells; test: MTT cytotoxicity; format: cell-based; conditions: platinum concentration
[8] = tested on: A2780 cells; test: MTT cytotoxicity; format: cell-based; conditions: platinum concentration
[9] = tested on: A2780DDP cells; test: MTT cytotoxicity; format: cell-based; conditions: platinum concentration

Compound | formation of Pt(NH3)2(5′-GMP)2 adducts ([1]; data not shown) | time at which Pt-siRNA adducts could be detected [2] | DACHPt(5′-GMP)2 adducts, share of the 5′-GMP pool ([1]; 30 m incubation, 10 mM 5′-GMP, 5 mM Pt, 37° C.) | DACHPt(5′-GMP)2 adducts, share of the total 5′-GMP pool ([1]; over the first 6 h, 10 mM 5′-GMP, 5 mM Pt, 37° C.) | siRNA transcripts platinated [3] | Platinum uptake 1 h ([4]; 1 h) | Platinum uptake 4 h ([4]; 4 h) | Pt-DNA adducts After 24 h [5] | IC50 [6] | IC50 [7] | IC50 [8] | IC50 [9]
N.N.[Cl][Pt][Cl] [CisPt(II), cisplatin] | Similarly rapid formation and time dependent increases | ≤ 30 m |  |  |  |  |  |  |  |  |  | 
O=C1[O][Pt]2([NH][C@@H]3CCCC[C@H]3[NH]2)[O]C1=O [OxaPt(II), Oxaliplatin] |  | 1 h | approximately 10% | > 40% | > 50% | 369 ± 24 pg Pt/cell (×10^−4) | 535 ± 16 pg Pt/cell (×10^−4) | 41.10 ± 9.84 ng Pt/μg DNA | 23.1 ± 0.25 µM | 15.5 ± 0.5 µM | 2.9 ± 0.28 µM | 18.8 ± 0.99 µM
